Assay results as given in PMC8466825, “Mass Spectrometric Quantification of the Antimicrobial Peptide Pep19-2.5 with Stable Isotope Labeling and Acidic Hydrolysis” (Pharmaceutics, 2021).

assay: Stability of aromatic amino acids during acidic hydrolysis (HPLC); type: physicochemical; conditions: hydrochloric acid, 24 h at 120 °C, 1 mg/mL before hydrolysis, HPLC with UV 214 nm
Description: For acidic hydrolysis 10 µL ^13C6(ring) phenylalanine (1 mg/mL stock) were added as internal standard to 200 µL water containing ^13C9,^15N1 phenylalanine (for calibration curve) or human serum (from voluntary donors) containing Pep19-2.5 with four ^13C9,^15N1 phenylalanine residues. After addition of 270 µL hydrochloric acid (10 M), the samples were hydrolyzed at 120 °C for 24 h. Subsequently, the solvent was evaporated in a vacuum evaporator (HETOVAC) at 40 °C for 4 h and the pellet was resuspended in water to achieve the applied concentration.
HPLC analysis was performed using an Agilent 1100 system with an UV-detection at 214 nm. As stationary phase a Chromolith® Performance RP-18e 100–3 mm column (Merck KGaA, Darmstadt, Germany) was used. A 5 min linear gradient from 100% water (+0.05% trifluoroacetic acid (TFA)) to 100% acetonitrile (+0.05% TFA) was applied.
For an accurate determination it is necessary to select an amino acid which is stable under the extreme conditions in the hydrolysis step (24 h, 120 °C). Moreover, the development of the method is facilitated if the amino acid is UV-active and more importantly in case of hydrophobic amino acids that are separated from the bulk of amino acids by RP-HPLC. Due to this, the three aromatic amino acids phenylalanine, tryptophan and tyrosine were hydrolyzed, and their stability analyzed by HPLC, as shown in Figure 4.

stability during the acidic hydrolysis process	SMILES
forms several degradation products	N[C@@H](Cc1c[nH]c2ccccc12)C(=O)O [Tryptophan, tryptophan]
sufficiently stable	N[C@@H](Cc1ccccc1)C(=O)O [phenylalanine]
degraded to poorly soluble products	N[C@@H](Cc1ccc(O)cc1)C(=O)O [tyrosine]
